Measurements: article PMC10552471 (ACS Omega, 2023)
Where a name gives a salt, the structure may show the parent alone.

What was measured:
Format in all cases: biochemical
[1] = biological target: T1, Plasmodium falciparum serine hydroxymethyltransferase (PfSHMT) (Plasmodium falciparum, UniProt Q8I566); assay: MTHFD-coupled enzyme assay at a single concentration; details: read-out: % inhibition at 100 μM
T1 sequence (Q8I566 1-442): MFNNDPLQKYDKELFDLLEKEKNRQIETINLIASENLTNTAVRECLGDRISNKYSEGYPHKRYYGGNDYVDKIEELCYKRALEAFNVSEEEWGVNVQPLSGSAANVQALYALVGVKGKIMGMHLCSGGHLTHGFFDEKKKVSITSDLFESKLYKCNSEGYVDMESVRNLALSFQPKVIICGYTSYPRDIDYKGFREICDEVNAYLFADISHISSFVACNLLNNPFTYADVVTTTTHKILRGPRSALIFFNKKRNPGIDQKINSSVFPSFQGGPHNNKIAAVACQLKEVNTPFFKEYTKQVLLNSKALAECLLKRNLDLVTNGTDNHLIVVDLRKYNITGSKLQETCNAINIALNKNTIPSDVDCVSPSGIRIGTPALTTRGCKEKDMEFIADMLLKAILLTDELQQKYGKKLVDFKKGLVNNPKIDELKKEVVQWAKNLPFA

[2] = biological target: T1, Plasmodium falciparum serine hydroxymethyltransferase (PfSHMT)
[3] = biological target: T1, Plasmodium falciparum serine hydroxymethyltransferase (PfSHMT); assay: MTHFD-coupled enzyme assay, […], […] to […] h incubation; details: read-out: % inhibition at 100 μM

Compound | inhibition at 100 µM [1] [%] | further results
CC(C)[C@@]1(NC(=O)[C@@H]2C[C@@H]3c4cccc5[nH]cc(c45)C[C@H]3N(C)C2)O[C@@]2(O)[C@@H]3CCCN3C(=O)[C@H](Cc3ccccc3)N2C1=O [dihydroergocristine mesylate] | 20 to 50 | 
C[C@@H]1[C@H](O)[C@@H](C)/C=C/C=C/C=C/C=C/C=C/C=C/C=C/[C@H](O[C@@H]2O[C@H](C)[C@@H](O)[C@H](N)[C@@H]2O)C[C@@H]2O[C@](O)(C[C@@H](O)C[C@@H](O)[C@H](O)CC[C@@H](O)C[C@@H](O)CC(=O)O[C@H]1C)C[C@H](O)[C@H]2C(=O)O [amphotericin B] |  | IC50 [2]: 106 ± 1 µM
CO[C@H]1/C=C/O[C@@]2(C)Oc3c(C)c(O)c4c(O)c(c5c(nc6cc(C)ccn65)c4c3C2=O)NC(=O)/C(C)=C\C=C\[C@H](C)[C@H](O)[C@@H](C)[C@@H](O)[C@@H](C)[C@H](OC(C)=O)[C@@H]1C [rifaximin] |  | inhibition at 100 µM [3]: ~60%
CO[C@H]1/C=C/O[C@@]2(C)Oc3c(C)c(O)c4c(c3C2=O)C2=NC3(CCN(CC(C)C)CC3)NC2=C(NC(=O)/C(C)=C\C=C\[C@H](C)[C@H](O)[C@@H](C)[C@@H](O)[C@@H](C)[C@H](OC(C)=O)[C@@H]1C)C4=O [rifabutin] | 20 to 50 | 
